In ChEMBL document CHEMBL4765450, “The components and activities analysis of a novel anticoagulant candidate dHG-5” (Eur J Med Chem, 2020):
Calls of active or inactive are those of the source. The calls are words filed in the database; no cut-off is given here.

Assays:
Rattus norvegicus [1] = assay: (§1) Antithrombotic activity in thromboplastin and stasis-induced Sprague-Dawley rat deep venous thrombosis model assessed as reduction in venous thrombosis at 1.84 mg/kg, sc administered 1 hr prior to thromboplastin addition for 20 secs followed by establishment of stasis for 20 mins relative to dHG-5; assay type: functional; conditions: time 80.33 min, 1.339 h
Rattus norvegicus [2] = assay: as §1, with “venous thrombosis by measuring activity potency of oligosaccharides multiplied by the percentage of oligosaccharides in dHG-5 at 1.84” for “venous thrombosis at 1.84”; assay type: functional; conditions: time 80.33 min, 1.339 h
[3] = biological target: Coagulation factor XI (Homo sapiens) (UniProt P03951); assay: Inhibition of factor 11a (unknown origin) at IC90 using S-2366 as substrate preincubated for 1 min followed by chromogenic substrate addition and measured for 2 mins in presence of AT-III; conditions: time 3.0 min
Coagulation factor IX [4] = biological target: T1, Coagulation factor IX (Homo sapiens, UniProt P00740); assay: Inhibition of factor 9a (unknown origin) binding to immobilized biotinylated oHG-11 assessed as activity potency of oligosaccharides multiplied by the percentage of oligosaccharides in dHG-5 by biolayer interferometry relative to dHG-5
[5] = biological target: Coagulation factor XI (Homo sapiens) (UniProt P03951); assay: Inhibition of factor 11a (unknown origin) at IC50 using S-2366 as substrate preincubated for 1 min followed by chromogenic substrate addition and measured for 2 mins; conditions: time 3.0 min
[6] = biological target: Coagulation factor X (Homo sapiens) (UniProt P00742); assay: Inhibition of factor 10a (unknown origin) at IC50 preincubated for 1 min followed by chromogenic substrate addition and measured for 2 mins in presence of AT-III; conditions: time 3.0 min
[7] = biological target: T2, Coagulation factor VII (Homo sapiens) (UniProt P08709); assay: Inhibition of factor 7a (unknown origin) at IC50 using pefachrome factor VIIa as substrate preincubated for 1 min followed by chromogenic substrate addition and measured for 2 mins; conditions: time 3.0 min
T2 sequence (whole entry): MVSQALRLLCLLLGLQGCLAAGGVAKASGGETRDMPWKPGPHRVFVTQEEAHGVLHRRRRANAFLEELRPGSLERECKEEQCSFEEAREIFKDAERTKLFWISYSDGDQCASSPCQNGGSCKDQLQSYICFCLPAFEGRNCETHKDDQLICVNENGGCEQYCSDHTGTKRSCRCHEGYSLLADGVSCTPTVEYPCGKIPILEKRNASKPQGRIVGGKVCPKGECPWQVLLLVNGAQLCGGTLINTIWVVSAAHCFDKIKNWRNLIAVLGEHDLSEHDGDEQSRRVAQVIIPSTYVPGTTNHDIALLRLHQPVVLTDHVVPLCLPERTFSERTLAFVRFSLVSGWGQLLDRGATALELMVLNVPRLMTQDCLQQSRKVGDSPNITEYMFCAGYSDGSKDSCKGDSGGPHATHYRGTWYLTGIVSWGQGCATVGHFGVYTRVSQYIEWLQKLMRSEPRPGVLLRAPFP

[8] = biological target: Prothrombin (Homo sapiens) (UniProt P00734); assay: Inhibition of factor 2a (unknown origin) at IC50 preincubated for 1 min followed by chromogenic substrate addition and measured for 2 mins in presence of AT-III; conditions: time 3.0 min
Plasma [9] = assay: (§2) Anticoagulation activity in human plasma assessed as drug level causing 20 times doubling of APTT preincubated for 2 mins followed by APTT reagent and measured after 3 mins by coagulometric method relative to dHG-5; assay type: functional; conditions: time 5 min
Plasma [10] = assay: as §2, with “of APTT by measuring activity potency of oligosaccharides multiplied by the percentage of oligosaccharides in dHG-5 preincubated for” for “of APTT preincubated for”; assay type: functional; conditions: time 5 min
[11] = biological target: T3, Coagulation factor XII (Homo sapiens) (UniProt P00748); assay: Inhibition of factor 12a (unknown origin) at IC50 using kallikrein chromogenic substrate preincubated for 1 min followed by chromogenic substrate addition and measured for 2 mins; conditions: time 3.0 min
T3 sequence (whole entry): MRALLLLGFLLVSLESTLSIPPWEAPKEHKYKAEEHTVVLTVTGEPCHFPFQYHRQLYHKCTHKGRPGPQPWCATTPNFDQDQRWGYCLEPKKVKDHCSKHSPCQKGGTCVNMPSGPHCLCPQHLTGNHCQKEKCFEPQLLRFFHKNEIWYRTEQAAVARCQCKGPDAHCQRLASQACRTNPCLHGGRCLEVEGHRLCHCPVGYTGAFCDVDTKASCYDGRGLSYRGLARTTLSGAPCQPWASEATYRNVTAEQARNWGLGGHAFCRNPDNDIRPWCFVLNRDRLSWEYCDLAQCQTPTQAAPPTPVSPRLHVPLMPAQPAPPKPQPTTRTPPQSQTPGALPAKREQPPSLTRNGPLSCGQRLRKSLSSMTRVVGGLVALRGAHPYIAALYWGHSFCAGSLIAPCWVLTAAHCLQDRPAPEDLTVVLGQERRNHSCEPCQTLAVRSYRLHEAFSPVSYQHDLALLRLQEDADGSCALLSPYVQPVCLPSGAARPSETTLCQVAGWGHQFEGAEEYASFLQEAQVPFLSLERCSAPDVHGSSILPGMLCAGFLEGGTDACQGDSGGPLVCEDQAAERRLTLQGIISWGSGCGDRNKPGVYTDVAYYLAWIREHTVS

[12] = biological target: Coagulation factor X (Homo sapiens) (UniProt P00742); assay: Inhibition of factor 10a (unknown origin) at IC90 preincubated for 1 min followed by chromogenic substrate addition and measured for 2 mins in presence of AT-III relative to control; conditions: time 3.0 min
[13] = biological target: Coagulation factor X (Homo sapiens) (UniProt P00742); assay: Inhibition of factor 10a (unknown origin) at IC50 preincubated for 1 min followed by chromogenic substrate addition and measured for 2 mins; conditions: time 3.0 min
[14] = biological target: Prothrombin (Homo sapiens) (UniProt P00734); assay: Inhibition of factor 2a (unknown origin) at IC50 preincubated for 1 min followed by chromogenic substrate addition and measured for 2 mins; conditions: time 3.0 min
Coagulation factor IX [15] = biological target: T1, Coagulation factor IX; assay: Inhibition of factor 9a (unknown origin) binding to immobilized biotinylated oHG-11 by biolayer interferometry relative to dHG-5
[16] = biological target: T2, Coagulation factor VII (Homo sapiens); assay: Inhibition of factor 7a (unknown origin) at IC50 using pefachrome factor VIIa as substrate preincubated for 1 min followed by chromogenic substrate addition and measured for 2 mins in presence of AT-III; conditions: time 3.0 min
[17] = biological target: T4, Coagulation factor IX/VIII (Homo sapiens) (UniProt P00740+P00451); assay: Inhibition of human citrated plasma iXase (factor 8a-factor 9a complex) assessed as activity potency of oligosaccharides multiplied by the percentage of oligosaccharides in dHG-5 preincubated for 2 mins followed by factor 10 addition and measured after 1 min by FXa chromogenic substrate SXa-11 based assay relative to dHG-5; assay type: protein-complex assay; conditions: time 3.0 min
[18] = biological target: T4, Coagulation factor IX/VIII (Homo sapiens); assay: Inhibition of human citrated plasma iXase (factor 8a-factor 9a complex) preincubated for 2 mins followed by factor 10 addition and measured after 1 min by FXa chromogenic substrate SXa-11 based assay relative to dHG-5; assay type: protein-complex assay; conditions: time 3.0 min
[19] = biological target: T3, Coagulation factor XII (Homo sapiens); assay: Inhibition of factor 12a (unknown origin) at IC50 using kallikrein chromogenic substrate preincubated for 1 min followed by chromogenic substrate addition and measured for 2 mins in presence of AT-III; conditions: time 3.0 min
[20] = biological target: Coagulation factor XI (Homo sapiens) (UniProt P03951); assay: Inhibition of factor 11a (unknown origin) at IC50 using S-2366 as substrate preincubated for 1 min followed by chromogenic substrate addition and measured for 2 mins in presence of AT-III; conditions: time 3.0 min
[21] = biological target: Prothrombin (Homo sapiens) (UniProt P00734); assay: Inhibition of factor 2a (unknown origin) at IC90 preincubated for 1 min followed by chromogenic substrate addition and measured for 2 mins in presence of AT-III; conditions: time 3.0 min

Chain of Coagulation factor XI (Homo sapiens) (P03951 19-387 limits assumed): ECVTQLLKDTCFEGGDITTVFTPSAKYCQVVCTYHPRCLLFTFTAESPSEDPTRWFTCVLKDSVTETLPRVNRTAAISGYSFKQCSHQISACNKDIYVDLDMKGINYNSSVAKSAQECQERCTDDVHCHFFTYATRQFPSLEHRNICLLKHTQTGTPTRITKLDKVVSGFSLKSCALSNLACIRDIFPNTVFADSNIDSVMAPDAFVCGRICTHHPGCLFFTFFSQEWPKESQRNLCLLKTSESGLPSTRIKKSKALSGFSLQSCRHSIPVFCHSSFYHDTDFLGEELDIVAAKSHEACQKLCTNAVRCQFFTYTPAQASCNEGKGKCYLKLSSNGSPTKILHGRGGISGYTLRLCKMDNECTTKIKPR
Chain of Coagulation factor XI (Homo sapiens) (P03951 388-625 limits assumed): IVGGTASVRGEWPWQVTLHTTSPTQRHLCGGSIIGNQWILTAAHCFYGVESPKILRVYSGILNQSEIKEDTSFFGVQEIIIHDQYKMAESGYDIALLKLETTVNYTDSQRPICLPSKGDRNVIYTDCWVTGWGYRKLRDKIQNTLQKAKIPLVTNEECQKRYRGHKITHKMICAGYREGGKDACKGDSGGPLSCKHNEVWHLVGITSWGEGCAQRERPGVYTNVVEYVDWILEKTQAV
Chain of Coagulation factor X (Homo sapiens) (P00742 41-179 limits assumed): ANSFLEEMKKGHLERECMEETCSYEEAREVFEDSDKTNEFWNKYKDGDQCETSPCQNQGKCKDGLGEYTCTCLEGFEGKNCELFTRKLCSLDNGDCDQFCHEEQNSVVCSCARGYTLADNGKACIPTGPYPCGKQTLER
Chain of Coagulation factor X (Homo sapiens) (P00742 235-488 limits assumed): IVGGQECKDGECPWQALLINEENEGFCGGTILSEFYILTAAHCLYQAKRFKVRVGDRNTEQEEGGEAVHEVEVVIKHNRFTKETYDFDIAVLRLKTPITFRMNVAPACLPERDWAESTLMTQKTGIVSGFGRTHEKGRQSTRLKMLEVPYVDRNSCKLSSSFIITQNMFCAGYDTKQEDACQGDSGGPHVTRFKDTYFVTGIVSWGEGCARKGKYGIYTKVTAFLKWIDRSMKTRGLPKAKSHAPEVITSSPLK
T1 sequence (P00740 47-191 limits assumed): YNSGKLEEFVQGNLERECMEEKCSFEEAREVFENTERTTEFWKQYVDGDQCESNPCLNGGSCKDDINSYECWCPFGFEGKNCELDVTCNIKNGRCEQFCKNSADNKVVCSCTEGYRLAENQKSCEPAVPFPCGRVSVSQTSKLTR
T1 sequence (P00740 227-461 limits assumed): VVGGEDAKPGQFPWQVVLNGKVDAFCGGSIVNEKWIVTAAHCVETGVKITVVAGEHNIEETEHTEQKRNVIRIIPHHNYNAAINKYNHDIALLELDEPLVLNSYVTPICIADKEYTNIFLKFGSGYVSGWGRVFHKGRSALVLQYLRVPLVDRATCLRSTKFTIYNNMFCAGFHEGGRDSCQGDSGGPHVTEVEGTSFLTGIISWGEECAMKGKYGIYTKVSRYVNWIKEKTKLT

Structure (SMILES) | Ratio (Rattus norvegicus [1]) | Ratio (Rattus norvegicus [2]) | inhibition [3] | Ratio (Coagulation factor IX [4]) | inhibition [5] | inhibition [6] | inhibition (active/not active) [7] | inhibition [8] | Ratio (Plasma [9]) | Ratio (Plasma [10]) | inhibition [11] | inhibition [12] | inhibition [13] | inhibition [14] | Ratio (Coagulation factor IX [15]) | inhibition [16] | Ratio [17] | Ratio [18] | inhibition [19] | inhibition [20] | also measured
CC(=O)N[C@H]1[C@H](O[C@@H]([C@H](O[C@@H]2O[C@@H](C)[C@@H](OS(=O)(=O)[O-])[C@@H](OS(=O)(=O)O)[C@@H]2O)[C@@H](O)CO)[C@H](O)C(=O)[O-])O[C@H](COS(=O)(=O)[O-])[C@H](OS(=O)(=O)[O-])[C@@H]1O[C@@H]1O[C@H](C(=O)[O-])[C@@H](O[C@@H]2O[C@H](COS(=O)(=O)[O-])[C@H](OS(=O)(=O)[O-])[C@H](O[C@@H]3O[C@H](C(=O)[O-])[C@@H](O[C@@H]4O[C@H](COS(=O)(=O)[O-])[C@H](OS(=O)(=O)[O-])[C@H](O[C@@H]5O[C@H](C(=O)[O-])[C@@H](O[C@@H]6O[C@H](COS(=O)(=O)[O-])[C@H](OS(=O)(=O)[O-])[C@H](O[C@@H]7O[C@H](C(=O)[O-])[C@@H](O[C@@H]8O[C@H](COS(=O)(=O)[O-])[C@H](OS(=O)(=O)[O-])[C@H](O[C@@H]9O[C@H](C(=O)[O-])[C@@H](O[C@@H]%10O[C@H](COS(=O)(=O)[O-])[C@H](OS(=O)(=O)[O-])[C@H](O[C@@H]%11OC(C(=O)[O-])=C[C@H](O[C@@H]%12O[C@@H](C)[C@@H](OS(=O)(=O)[O-])[C@@H](OS(=O)(=O)O)[C@@H]%12O)[C@H]%11O)[C@H]%10NC(C)=O)[C@H](O[C@@H]%10O[C@@H](C)[C@@H](OS(=O)(=O)[O-])[C@@H](OS(=O)(=O)O)[C@@H]%10O)[C@H]9O)[C@H]8NC(C)=O)[C@H](O[C@@H]8O[C@@H](C)[C@@H](OS(=O)(=O)[O-])[C@@H](OS(=O)(=O)O)[C@@H]8O)[C@H]7O)[C@H]6NC(C)=O)[C@H](O[C@@H]6O[C@@H](C)[C@@H](OS(=O)(=O)[O-])[C@@H](OS(=O)(=O)O)[C@@H]6O)[C@H]5O)[C@H]4NC(C)=O)[C@H](O[C@@H]4O[C@@H](C)[C@@H](OS(=O)(=O)[O-])[C@@H](OS(=O)(=O)O)[C@@H]4O)[C@H]3O)[C@H]2NC(C)=O)[C@H](O[C@@H]2O[C@@H](C)[C@@H](OS(=O)(=O)[O-])[C@@H](OS(=O)(=O)O)[C@@H]2O)[C@H]1O.[Na+].[Na+].[Na+].[Na+].[Na+].[Na+].[Na+].[Na+].[Na+].[Na+].[Na+].[Na+].[Na+].[Na+].[Na+].[Na+].[Na+].[Na+].[Na+].[Na+].[Na+].[Na+].[Na+].[Na+].[Na+].[Na+] | 213.7 U | 23.93 U | Active | 13.1 U | inactive | inactive | inactive | inactive | 203.41 U | 22.82 U | inactive | inactive | inactive | inactive | 116 U | inactive | 24.4 U | 217 U | inactive | inactive | inhibition [21]: Active
CC(=O)N[C@H]1[C@H](O[C@@H]([C@H](O[C@@H]2O[C@@H](C)[C@@H](OS(=O)(=O)[O-])[C@@H](OS(=O)(=O)O)[C@@H]2O)[C@@H](O)CO)[C@H](O)C(=O)[O-])O[C@H](COS(=O)(=O)[O-])[C@H](OS(=O)(=O)[O-])[C@@H]1O[C@@H]1O[C@H](C(=O)[O-])[C@@H](O[C@@H]2O[C@H](COS(=O)(=O)[O-])[C@H](OS(=O)(=O)[O-])[C@H](O[C@@H]3O[C@H](C(=O)[O-])[C@@H](O[C@@H]4O[C@H](COS(=O)(=O)[O-])[C@H](OS(=O)(=O)[O-])[C@H](O[C@@H]5O[C@H](C(=O)[O-])[C@@H](O[C@@H]6O[C@H](COS(=O)(=O)[O-])[C@H](OS(=O)(=O)[O-])[C@H](O[C@@H]7O[C@H](C(=O)[O-])[C@@H](O[C@@H]8O[C@H](COS(=O)(=O)[O-])[C@H](OS(=O)(=O)[O-])[C@H](O[C@@H]9O[C@H](C(=O)[O-])[C@@H](O[C@@H]%10O[C@H](COS(=O)(=O)[O-])[C@H](OS(=O)(=O)[O-])[C@H](O[C@@H]%11O[C@H](C(=O)[O-])[C@@H](O[C@@H]%12O[C@H](COS(=O)(=O)[O-])[C@H](OS(=O)(=O)[O-])[C@H](O[C@@H]%13OC(C(=O)O)=C[C@H](O[C@@H]%14O[C@@H](C)[C@@H](OS(=O)(=O)[O-])[C@@H](OS(=O)(=O)O)[C@@H]%14O)[C@H]%13O)[C@H]%12NC(C)=O)[C@H](O[C@@H]%12O[C@@H](C)[C@@H](OS(=O)(=O)[O-])[C@@H](OS(=O)(=O)O)[C@@H]%12O)[C@H]%11O)[C@H]%10NC(C)=O)[C@H](O[C@@H]%10O[C@@H](C)[C@@H](OS(=O)(=O)[O-])[C@@H](OS(=O)(=O)O)[C@@H]%10O)[C@H]9O)[C@H]8NC(C)=O)[C@H](O[C@@H]8O[C@@H](C)[C@@H](OS(=O)(=O)[O-])[C@@H](OS(=O)(=O)O)[C@@H]8O)[C@H]7O)[C@H]6NC(C)=O)[C@H](O[C@@H]6O[C@@H](C)[C@@H](OS(=O)(=O)[O-])[C@@H](OS(=O)(=O)O)[C@@H]6O)[C@H]5O)[C@H]4NC(C)=O)[C@H](O[C@@H]4O[C@@H](C)[C@@H](OS(=O)(=O)[O-])[C@@H](OS(=O)(=O)O)[C@@H]4O)[C@H]3O)[C@H]2NC(C)=O)[C@H](O[C@@H]2O[C@@H](C)[C@@H](OS(=O)(=O)[O-])[C@@H](OS(=O)(=O)O)[C@@H]2O)[C@H]1O.[Na+].[Na+].[Na+].[Na+].[Na+].[Na+].[Na+].[Na+].[Na+].[Na+].[Na+].[Na+].[Na+].[Na+].[Na+].[Na+].[Na+].[Na+].[Na+].[Na+].[Na+].[Na+].[Na+].[Na+].[Na+].[Na+].[Na+].[Na+].[Na+] | 244.26 U | 16.12 U | Active | 11.7 U | inactive | inactive | inactive | inactive | 232.47 U | 15.39 U | inactive | inactive | inactive | inactive | 177 U | inactive | 25.4 U | 384 U | inactive | inactive | inhibition [21]: Active
